Data taken from patent publication US20250304990A1, “HERBICIDE RESISTANCE” (SYNGENTA CROP PROTECTION AG, priority 2021, published 2025).

Key:
Assay in all cases: Dose response test, growth in 96-well plates
Format in all cases: cell-based, Chlorella fusca
Cf-496-97 = details: strain Cf-496-97; no growth, visual inspection
Method: (§1) Dose response tests with B5U were set-up in 96-well, flat bottomed plates. 200 μl medium was used in each well. 2 μl of 6 day old culture was added to each well, then 2 μl of DMSO or dilution of test compound were added to respective wells. 2-fold dilutions starting at 100 ppm were used per well. Plates were incubated at 25° C., 50 μmol/m^2/s, 16 hour photoperiod.
(§2) This was assessed by a visual inspection of growth in the 96-well plate. The inhibitor concentration at which no growth is observed is then defined as the LD.

Cf-496-35 = details: strain Cf-496-35; no growth, visual inspection
Method: as §1, §2

Cf-496-54 = details: strain Cf-496-54; no growth, visual inspection
Method: as §1, §2

Cf-496-82 = details: strain Cf-496-82; no growth, visual inspection
Method: as §1, §2

Cf-496-51 = details: strain Cf-496-51 (F275I); no growth, visual inspection
Method: as §1, §2

Cf-496-78 = details: strain Cf-496-78 (F275I); no growth, visual inspection
Method: as §1, §2

Cf-496-90 = details: strain Cf-496-90; no growth, visual inspection
Method: as §1, §2

Cf-496-65 = details: strain Cf-496-65; no growth, visual inspection
Method: as §1, §2

Cf-496-88 = details: strain Cf-496-88; no growth, visual inspection
Method: as §1, §2

Cf-496-13 = details: strain Cf-496-13; no growth, visual inspection
Method: as §1, §2

Cf-496-85 = details: strain Cf-496-85; no growth, visual inspection
Method: as §1, §2

Cf-496-21 = details: strain Cf-496-21; no growth, visual inspection
Method: as §1, §2

Cf-496-8 = details: strain Cf-496-8 (M278L & F279I); no growth, visual inspection
Method: as §1, §2
(§3) Starting dose was 100 ppm and decreasing with 2-fold dilutions with C. fusca wt, the five HST mutants and the 10 compounds to which the wt is sensitive. Plates were incubated at 25° C., 50 μmol/m2/s, 16 hour photoperiod.

Cf WT = details: strain Cf WT; concentration at which no growth is observed, visual inspection
Method: as §1, §2, §3

Cf-496-15 = details: strain Cf-496-15 (T277N); no growth, visual inspection
Method: as §1, §2, §3

Cf-496-94 = details: strain Cf-496-94 (F275L); no growth, visual inspection
Method: as §1, §2, §3

Cf-496-28 = details: strain Cf-496-28 (V276A); no growth, visual inspection
Method: as §1, §2, §3

Cf-496-19 = details: strain Cf-496-19 (F275I); no growth, visual inspection
Method: as §1, §2, §3

Cf-496-6 = details: strain Cf-496-6; no growth, visual inspection

Cc1nn(C)c(=O)c(-c2c(F)ccc(Cl)c2CCc2ccc(C(F)(F)F)cc2)c1OC(=O)C(C)C [B5u, [5-[3-chloro-6-fluoro-2-[2-[4-(trifluoromethyl)phenyl]ethyl]phenyl]-1,3-dimethyl-6-oxo-pyridazin-4-yl]2-methylpropanoate]
LD (lethal dose) (Cf-496-97): >100 ppm
LD (lethal dose) (Cf-496-35): >100 ppm
LD (lethal dose) (Cf-496-54): >100 ppm
LD (lethal dose) (Cf-496-82): >100 ppm
LD (lethal dose) (Cf-496-51): >100 ppm
LD (lethal dose) (Cf-496-78): >100 ppm
LD (lethal dose) (Cf-496-90): >100 ppm
LD (lethal dose) (Cf-496-65): >100 ppm
LD (lethal dose) (Cf-496-88): >100 ppm
LD (lethal dose) (Cf-496-13): 6.25 ppm
LD (lethal dose) (Cf-496-85): >100 ppm
LD (lethal dose) (Cf-496-21): >100 ppm
LD (lethal dose) (Cf-496-8): >100 ppm
LD (lethal dose) (Cf WT): 6.25 ppm
LD (lethal dose) (Cf-496-15): >100 ppm
LD (lethal dose) (Cf-496-94): >100 ppm
LD (lethal dose) (Cf-496-28): >100 ppm
LD (lethal dose) (Cf-496-19): >100 ppm
LD (lethal dose) (Cf-496-6): >100 ppm
